# Assay results taken from patent publication US4847300A, “Use of alpha-2I selective adrenergic receptor agonists in memory enhancement” (priority 1986, dated 1989).
# Where two headings read alike, the source gives them in different places.
# Key:
# [1] = system: aged monkeys; assay: blood pressure study in awake chaired aged monkeys; type: in vivo, rhesus monkeys; settings: for Systolic Blood Pressure, change vs placebo control: mean; for drop in systolic blood pressure: at the high doses optimal for memory improvement
# Method: In order to measure blood pressure in the awake, behaving monkey, three aged animals were adapted to primate chair restraint for several weeks. Blood pressure was measured using a pediatric digital blood pressure monitor. Each day the animals were […] immediately injected with the drug or saline. Fifteen minutes later, three blood pressure measurements were taken. […] Following memory testing, three more blood pressure measurements were taken before the monkey was returned to its home cage. The average blood pressure response before and after memory testing was calculated; drug response was compared to the previous response on saline Drug administration was initiated only after a stable blood pressure baseline was apparent.
# [2] = system: aged monkeys; settings: for Sedation Score (0-IV): mean
# Description: Sedation was rated using a 5 point scale where 0=normal level of arousal, I=quiet, II=sedated, III=intermittent sleeping and IV=too sedated to test.
# [3] = biological target: alpha-2R subtype; settings: cited from earlier work
# [4] = biological target: alpha-2I subtype; settings: second figure of the alpha-2R/alpha-2I Ki ratio; cited from earlier work
# [5] = clinical blood pressure studies; cited from earlier work
# [6] = system: aged monkeys; assay: variable delayed response task (spatial working memory) in aged monkeys; settings: for average optimal dose for improving memory: aged monkeys; for average optimal dose for improving memory / Optimal dose: equimolar clonidine dose; for aged monkeys with improved memory: applicants' experiments; for Delayed Response Performance (% change from placebo control): mean; for dose range in which effective: memory improvement, summary statement; for Percent Improvement: at individual optimal dose; for Optimal dose: i.m.
# [7] = system: rhesus monkeys; settings: catecholamine-depleted association cortex; cited from earlier work
# [8] = system: aged monkeys; settings: early experiments, Science 230, 1273 (1985); cited from earlier work
# [9] = system: aged monkeys; settings: 0.01 to 0.09 mg/kg; background; cited from earlier work
# [10] = system: Korsakoff patients; settings: about 0.01 to 0.02 mg/kg/day for two weeks; cited from earlier work
# [11] = system: Alzheimer patients; settings: acute administration; study was terminated; cited from earlier work
# [12] = system: alpha-2R subtype; settings: alpha-2R vs alpha-2I
# Description: Receptor binding data provides evidence for two distinct alpha-2 receptor sub-types, C. […] One subtype binds with high affinity to the antagonist idazoxan, and is referred to as the "alpha-2I subtype"; the other subtype binds with high affinity to both idazoxan and to the antagonist, rauwolscine, and is referred to as the "alpha-2R subtype".
# [13] = dose .0001 mg/kg i.m. (equimolar clonidine dose)
# [14] = dose .001 mg/kg i.m. (equimolar clonidine dose)
# [15] = dose .01 mg/kg i.m. (equimolar clonidine dose)
# [16] = dose .05 mg/kg i.m. (equimolar clonidine dose)
smiles,measurement,setting,value
"N=C(N)NC(=O)Cc1c(Cl)cccc1Cl [Guanfacine, guanfacine]","Systolic Blood Pressure, change vs placebo control",[1]; dose .0001 mg/kg i.m.,+3 mm Hg
same,"Systolic Blood Pressure, change vs placebo control",[1]; dose .001 mg/kg i.m.,+6 mm Hg
same,"Systolic Blood Pressure, change vs placebo control",[1]; dose .01 mg/kg i.m.,-11 mm Hg
same,"Systolic Blood Pressure, change vs placebo control",[1]; dose .05 mg/kg i.m.,-21 mm Hg
same,average change in systolic blood pressure,"[1]; low, memory-improving doses",+6 mm Hg
same,Sedation Score,"[2]; rhesus monkey, in vivo",0
same,sedation scores,"[2]; rhesus monkey, in vivo",0
same,Ki,[3],340 nM
same,Ki,[4],22.6 nM
same,potency relative to clonidine,[5],1/10
same,average optimal dose for improving memory,[6],about 0.001 mg/kg
same,aged monkeys with improved memory,[6],11/11
same,Delayed Response Performance (% change from placebo control),[6]; [13],+9%
same,Delayed Response Performance (% change from placebo control),[6]; [14],+10%
same,Delayed Response Performance (% change from placebo control),[6]; [15],+10%
same,Delayed Response Performance (% change from placebo control),[6]; [16],-6%
same,duration of memory effects,[6]; low doses,up to four days
same,dose range in which effective,[6],nanogram/kg range
same,Percent Improvement,[6]; monkey #107,20%
same,Optimal dose,[6]; monkey #107,10 µg/kg
same,Percent Improvement,[6]; monkey #113,23%
same,Optimal dose,[6]; monkey #113,0.001 µg/kg
same,Percent Improvement,[6]; monkey #121,10%
same,Optimal dose,[6]; monkey #121,0.001 µg/kg
same,Percent Improvement,[6]; monkey #124,18%
same,Optimal dose,[6]; monkey #124,0.1 µg/kg
same,Percent Improvement,[6]; monkey #343,13%
same,Optimal dose,[6]; monkey #343,0.01 µg/kg
same,Percent Improvement,[6]; monkey #444,13%
same,Optimal dose,[6]; monkey #444,10 µg/kg
same,Percent Improvement,[6]; monkey #445,20%
same,Optimal dose,[6]; monkey #445,1 µg/kg
same,Percent Improvement,[6]; monkey #446,10%
same,Optimal dose,[6]; monkey #446,10 µg/kg
same,Percent Improvement,[6]; monkey #447,20%
same,Optimal dose,[6]; monkey #447,1 µg/kg
same,Percent Improvement,[6]; monkey #448,23%
same,Optimal dose,[6]; monkey #448,0.01 µg/kg
same,Percent Improvement,[6]; monkey #449,20%
same,Optimal dose,[6]; monkey #449,1 µg/kg
CN1CCc2cccc3c2[C@H]1Cc1ccc(O)c(O)c1-3 [apomorphine],effect on behavioral deficit in spatial delayed alternation,[7],pharmacologically reversed
"Clc1cccc(Cl)c1N=C1NCCN1 [Clonidine, clonidine]",drop in systolic blood pressure,[1],greater than 50 mm Hg
same,"Systolic Blood Pressure, change vs placebo control",[1]; dose .0001 mg/kg i.m.,-23 mm Hg
same,"Systolic Blood Pressure, change vs placebo control",[1]; dose .001 mg/kg i.m.,-8 mm Hg
same,"Systolic Blood Pressure, change vs placebo control",[1]; dose .01 mg/kg i.m.,-32 mm Hg
same,"Systolic Blood Pressure, change vs placebo control",[1]; dose .05 mg/kg i.m.,> -50 mm Hg
same,Sedation Score (0-IV),[2]; dose .0001 mg/kg i.m.,0
same,Sedation Score (0-IV),[2]; dose .001 mg/kg i.m.,0
same,Sedation Score (0-IV),[2]; dose .01 mg/kg i.m.,I
same,Sedation Score,"[2]; monkey #121, at individual optimal dose",0
same,Sedation Score,"[2]; monkey #445, at individual optimal dose",I
same,Sedation Score,"[2]; monkey #449, at individual optimal dose",0
same,Ki,[3],27.7 nM
same,Ki,[4],38.1 nM
same,effect on behavioral deficit in spatial delayed alternation,[7],pharmacologically reversed
same,aged monkeys with improved memory,[8],5/5
same,side effects at memory-enhancing doses,[9],profound hypotension and sedation
same,effect on memory performance,[10],improved memory performance
same,side effects,[11],severe hypotension and sedation
same,average optimal dose for improving memory,[6],0.05 mg/kg
same,aged monkeys with improved memory,[6],8
same,effect on memory,[6]; dose 0.0001 to 0.01 mg/kg,often impaired memory
same,Delayed Response Performance (% change from placebo control),[6]; [13],-6%
same,Delayed Response Performance (% change from placebo control),[6]; [14],+3%
same,Delayed Response Performance (% change from placebo control),[6]; [15],+6%
same,Delayed Response Performance (% change from placebo control),[6]; [16],+12%
same,Percent Improvement,[6]; monkey #107,27%
same,Optimal dose,[6]; monkey #107,10 µg/kg
same,Percent Improvement,[6]; monkey #113,30%
same,Optimal dose,[6]; monkey #113,50 µg/kg
same,Percent Improvement,[6]; monkey #121,17%
same,Optimal dose,[6]; monkey #121,5 µg/kg
same,Percent Improvement,[6]; monkey #124,23%
same,Optimal dose,[6]; monkey #124,40 µg/kg
same,Percent Improvement,[6]; monkey #343,30%
same,Optimal dose,[6]; monkey #343,200 µg/kg
same,Percent Improvement,[6]; monkey #444,25%
same,Optimal dose,[6]; monkey #444,30 µg/kg
same,Percent Improvement,[6]; monkey #445,18%
same,Optimal dose,[6]; monkey #445,40 µg/kg
same,Percent Improvement,[6]; monkey #446,17%
same,Optimal dose,[6]; monkey #446,80 µg/kg
same,Percent Improvement,[6]; monkey #447,23%
same,Optimal dose,[6]; monkey #447,60 µg/kg
same,Percent Improvement,[6]; monkey #448,30%
same,Optimal dose,[6]; monkey #448,70 µg/kg
same,Percent Improvement,[6]; monkey #449,23%
same,Optimal dose,[6]; monkey #449,1 µg/kg
C=CCN1CCc2nc(N)sc2CC1 [BHT-920],drop in systolic blood pressure,[1],greater than 50 mm Hg
same,"Systolic Blood Pressure, change vs placebo control",[1]; dose .0001 mg/kg i.m.,-9 mm Hg
same,"Systolic Blood Pressure, change vs placebo control",[1]; dose .001 mg/kg i.m.,-8 mm Hg
same,"Systolic Blood Pressure, change vs placebo control",[1]; dose .01 mg/kg i.m.,-37 mm Hg
same,"Systolic Blood Pressure, change vs placebo control",[1]; dose .05 mg/kg i.m.,> -50 mm Hg
same,hypotensive effects compared with the other agonists,"[1]; monkey #445, FIG. 3",very similar to those of clonidine
same,selectivity for the alpha-2R subtype,[12],two times more selective
same,Ki,[3],62.2 nM
same,Ki,[4],138 nM
same,average optimal dose for improving memory,[6],0.07 mg/kg
same,Delayed Response Performance (% change from placebo control),[6]; [13],0%
same,Delayed Response Performance (% change from placebo control),[6]; [14],-3%
same,Delayed Response Performance (% change from placebo control),[6]; [15],+9%
same,Delayed Response Performance (% change from placebo control),[6]; [16],+8%
same,Delayed Response Performance (% change from placebo control),[6]; dose .08 mg/kg i.m. (equimolar clonidine dose),+15%
"N=C(N)N/N=C/c1c(Cl)cccc1Cl [Guanabenz, guanabenz]",hypotensive effects compared with the other agonists,"[1]; rhesus monkey, in vivo","more hypotensive side effects than guanfacine, but fewer side effects than clonidine"
same,Sedation Score (0-IV),[2]; dose .00000005 mg/kg i.m.,0
same,Sedation Score (0-IV),[2]; dose .00001 mg/kg i.m.,0
same,Sedation Score (0-IV),[2]; dose .0001 mg/kg i.m.,0
same,Sedation Score (0-IV),[2]; dose .001 mg/kg i.m.,0
same,Sedation Score (0-IV),[2]; dose .01 mg/kg i.m.,0
same,Sedation Score (0-IV),[2]; dose .05 mg/kg i.m.,I
same,Ki,[3],36.7 nM
same,Ki,[4],5.3 nM
same,Delayed Response Performance (% change from placebo control),[6]; dose .00000005 mg/kg i.m. (equimolar clonidine dose),+8%
same,Delayed Response Performance (% change from placebo control),[6]; dose .00001 mg/kg i.m. (equimolar clonidine dose),-1%
same,Delayed Response Performance (% change from placebo control),[6]; [13],+1%
same,Delayed Response Performance (% change from placebo control),[6]; [14],-2%
same,Delayed Response Performance (% change from placebo control),[6]; [15],+7%
same,Delayed Response Performance (% change from placebo control),[6]; [16],+7%
same,dose range in which effective,[6],picogram/kg range
same,doses at which memory improved,"[6]; monkey #445, FIG. 3",5e-05 to 10 µg/kg
N[C@@H](Cc1ccc(O)c(O)c1)C(=O)O [L-dopa],effect on behavioral deficit in spatial delayed alternation,[7],pharmacologically reversed
